From ChEMBL document CHEMBL5143507, “Small Molecule Kinase Inhibitor Drugs (1995-2021): Medical Indication, Pharmacology, and Synthesis” (J Med Chem, 2022)

Assays:
[1] = target: Receptor tyrosine-protein kinase erbB-2 (Homo sapiens, UniProt P04626); assay: Inhibition of N-terminal GST fused HER2 (679 to 1255 residues) (unknown origin) using poly (Glu-Tyr) E4Y1 peptide as substrate measured after 4 hrs by ADP-Glo reagent method
[2] = target: Epidermal growth factor receptor (Homo sapiens, UniProt P00533); assay: Inhibition of N-terminal GST fused EGFR (668 to 1091 residues) (unknown origin) using poly (Glu-Tyr) E4Y1 peptide as substrate incubated for 2 hrs by ADP-Glo reagent method
Chain of Epidermal growth factor receptor (P00533 whole entry, the tested form may be a part): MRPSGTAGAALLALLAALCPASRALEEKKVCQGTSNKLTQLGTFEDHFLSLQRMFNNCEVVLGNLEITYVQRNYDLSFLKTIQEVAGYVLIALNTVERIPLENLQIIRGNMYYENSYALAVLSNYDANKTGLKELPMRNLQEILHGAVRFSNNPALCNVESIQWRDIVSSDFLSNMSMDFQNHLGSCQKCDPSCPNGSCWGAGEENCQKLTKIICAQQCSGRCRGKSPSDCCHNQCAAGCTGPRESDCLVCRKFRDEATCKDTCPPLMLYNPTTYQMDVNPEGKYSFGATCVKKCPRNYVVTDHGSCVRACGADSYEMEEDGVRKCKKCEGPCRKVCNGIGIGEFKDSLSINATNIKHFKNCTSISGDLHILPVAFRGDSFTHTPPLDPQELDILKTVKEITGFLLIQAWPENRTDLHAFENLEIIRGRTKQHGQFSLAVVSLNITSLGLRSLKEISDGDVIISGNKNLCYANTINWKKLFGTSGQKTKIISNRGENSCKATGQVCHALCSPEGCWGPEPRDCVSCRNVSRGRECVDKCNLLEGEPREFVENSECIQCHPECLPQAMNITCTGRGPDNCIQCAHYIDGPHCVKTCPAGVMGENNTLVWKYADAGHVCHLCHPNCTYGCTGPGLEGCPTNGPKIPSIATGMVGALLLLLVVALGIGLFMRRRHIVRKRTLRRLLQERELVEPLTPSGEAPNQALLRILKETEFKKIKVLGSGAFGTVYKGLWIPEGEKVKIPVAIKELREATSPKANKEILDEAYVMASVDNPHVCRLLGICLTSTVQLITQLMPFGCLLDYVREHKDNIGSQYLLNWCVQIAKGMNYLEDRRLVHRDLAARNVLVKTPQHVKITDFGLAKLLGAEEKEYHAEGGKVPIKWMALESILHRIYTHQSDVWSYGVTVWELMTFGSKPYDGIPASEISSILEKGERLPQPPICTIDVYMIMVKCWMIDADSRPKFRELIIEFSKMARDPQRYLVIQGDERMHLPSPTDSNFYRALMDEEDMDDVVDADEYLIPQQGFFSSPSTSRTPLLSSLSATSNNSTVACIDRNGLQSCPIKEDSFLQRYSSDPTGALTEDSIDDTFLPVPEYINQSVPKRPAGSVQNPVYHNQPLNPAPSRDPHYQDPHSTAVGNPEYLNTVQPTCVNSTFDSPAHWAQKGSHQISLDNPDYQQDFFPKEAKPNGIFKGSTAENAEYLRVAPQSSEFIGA

Chain of Receptor tyrosine-protein kinase erbB-2 (P04626 whole entry, the tested form may be a part): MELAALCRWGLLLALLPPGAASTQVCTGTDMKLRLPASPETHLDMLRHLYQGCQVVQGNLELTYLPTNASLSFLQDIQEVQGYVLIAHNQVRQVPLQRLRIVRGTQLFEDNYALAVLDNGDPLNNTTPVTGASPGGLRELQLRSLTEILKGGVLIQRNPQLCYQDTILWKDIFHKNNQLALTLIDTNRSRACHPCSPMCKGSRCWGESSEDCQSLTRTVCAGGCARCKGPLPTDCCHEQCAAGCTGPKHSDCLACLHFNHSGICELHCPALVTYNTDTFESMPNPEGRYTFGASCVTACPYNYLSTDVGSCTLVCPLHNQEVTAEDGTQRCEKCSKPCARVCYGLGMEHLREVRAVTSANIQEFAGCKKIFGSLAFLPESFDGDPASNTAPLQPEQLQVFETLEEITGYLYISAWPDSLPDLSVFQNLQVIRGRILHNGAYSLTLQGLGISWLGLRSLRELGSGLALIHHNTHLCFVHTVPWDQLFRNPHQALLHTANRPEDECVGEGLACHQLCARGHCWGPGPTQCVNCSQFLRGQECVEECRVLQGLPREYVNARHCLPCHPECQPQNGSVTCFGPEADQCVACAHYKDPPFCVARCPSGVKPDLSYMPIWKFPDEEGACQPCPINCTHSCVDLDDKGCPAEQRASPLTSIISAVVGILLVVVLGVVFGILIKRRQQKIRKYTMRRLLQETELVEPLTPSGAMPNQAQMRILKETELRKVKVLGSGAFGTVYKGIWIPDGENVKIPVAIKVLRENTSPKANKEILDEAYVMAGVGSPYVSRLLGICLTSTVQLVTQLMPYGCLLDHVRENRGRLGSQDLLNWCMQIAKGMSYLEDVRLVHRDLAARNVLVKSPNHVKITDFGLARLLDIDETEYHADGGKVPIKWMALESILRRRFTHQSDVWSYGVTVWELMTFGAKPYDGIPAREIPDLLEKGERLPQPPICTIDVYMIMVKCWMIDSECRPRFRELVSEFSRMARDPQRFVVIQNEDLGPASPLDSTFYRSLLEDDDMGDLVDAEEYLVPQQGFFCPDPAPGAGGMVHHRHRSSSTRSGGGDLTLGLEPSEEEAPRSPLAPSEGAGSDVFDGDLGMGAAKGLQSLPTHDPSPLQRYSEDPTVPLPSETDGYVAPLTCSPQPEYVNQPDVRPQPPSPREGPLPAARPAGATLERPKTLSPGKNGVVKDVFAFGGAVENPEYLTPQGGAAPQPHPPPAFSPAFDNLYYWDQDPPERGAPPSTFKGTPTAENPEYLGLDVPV

IC50 [1]: 0.0069 µM | IC50 [2]: 0.449 µM
SMILES: Cc1cc(Nc2ncnc3ccc(NC4=NC(C)(C)CO4)cc23)ccc1Oc1ccn2ncnc2c1 [TUCATINIB]
